Results as given in patent US9815839B2, “N-(1-(substituted-phenyl)ethyl)-9H-purin-6-amines as PI3K inhibitors” (Incyte Corporation, priority 2010, dated 2017).
Where a name gives a salt, the structure may show the parent alone.

target: T1, PI3Kδ (p110δ/p85α) (Homo sapiens, UniProt O00329); assay: PI3Kδ scintillation proximity assay; type: biochemical; conditions: 20 μM ATP, 4 nM PI3Kδ
T1 construct: purchased Millipore (Bedford, Mass.)
Text: Example A: PI3Kδ Scintillation Proximity Assay
Materials: [γ-^33P]ATP (10 mCi/mL) was purchased from Perkin-Elmer (Waltham, Mass.). Lipid kinase substrate, D-myo-Phosphatidylinositol 4,5-bisphosphate (PtdIns(4,5)P2)D (+)-sn-1,2-di-O-octanoylglyceryl, 3-O-phospho linked (PIP2), CAS 204858-53-7, was purchased from Echelon Biosciences (Salt Lake City, Utah). PI3Kδ (p110δ/p85α) was purchased from Millipore (Bedford, Mass.). ATP, MgCl2, DTT, EDTA, MOPS and CHAPS were purchased from Sigma-Aldrich (St. Louis, Mo.). Wheat Germ Agglutinin (WGA) YSi SPA Scintillation Beads was purchased from GE healthcare life sciences (Piscataway, N.J.).
The kinase reaction was conducted in polystyrene 384-well matrix white plate from Thermo Fisher Scientific in a final volume of 25 μL. Inhibitors were first diluted serially in DMSO and added to the plate wells before the addition of other reaction components. The final concentration of DMSO in the assay was 0.5%. The PI3K assays were carried out at room temperature in 20 mM MOPS, pH 6.7, 10 mM MgCl2, 5 mM DTT and CHAPS 0.03%. Reactions were initiated by the addition of ATP, the final reaction mixture consisted of 20 μM PIP2,20 μM ATP, 0.2 μCi [γ-^33P] ATP, 4 nM PI3Kδ. Reactions were incubated for 210 minutes and terminated by the addition of 40 μL SPA beads suspended in quench buffer: 150 mM potassium phosphate pH 8.0, 20% glycerol. 25 mM EDTA, 400 µM ATP. The final concentration of SPA beads is 1.0 mg/mL. After the plate sealing, plates were shaken overnight at room temperature and centrifuged at 1800 rpm for 10 minutes, the radioactivity of the product was determined by scintillation counting on Topcount (Perkin-Elmer). IC50 determination was performed by fitting the curve of percent control activity versus the log of the inhibitor concentration using the GraphPad Prism 3.0 software.

T1 sequence (O00329 whole entry, species assumed): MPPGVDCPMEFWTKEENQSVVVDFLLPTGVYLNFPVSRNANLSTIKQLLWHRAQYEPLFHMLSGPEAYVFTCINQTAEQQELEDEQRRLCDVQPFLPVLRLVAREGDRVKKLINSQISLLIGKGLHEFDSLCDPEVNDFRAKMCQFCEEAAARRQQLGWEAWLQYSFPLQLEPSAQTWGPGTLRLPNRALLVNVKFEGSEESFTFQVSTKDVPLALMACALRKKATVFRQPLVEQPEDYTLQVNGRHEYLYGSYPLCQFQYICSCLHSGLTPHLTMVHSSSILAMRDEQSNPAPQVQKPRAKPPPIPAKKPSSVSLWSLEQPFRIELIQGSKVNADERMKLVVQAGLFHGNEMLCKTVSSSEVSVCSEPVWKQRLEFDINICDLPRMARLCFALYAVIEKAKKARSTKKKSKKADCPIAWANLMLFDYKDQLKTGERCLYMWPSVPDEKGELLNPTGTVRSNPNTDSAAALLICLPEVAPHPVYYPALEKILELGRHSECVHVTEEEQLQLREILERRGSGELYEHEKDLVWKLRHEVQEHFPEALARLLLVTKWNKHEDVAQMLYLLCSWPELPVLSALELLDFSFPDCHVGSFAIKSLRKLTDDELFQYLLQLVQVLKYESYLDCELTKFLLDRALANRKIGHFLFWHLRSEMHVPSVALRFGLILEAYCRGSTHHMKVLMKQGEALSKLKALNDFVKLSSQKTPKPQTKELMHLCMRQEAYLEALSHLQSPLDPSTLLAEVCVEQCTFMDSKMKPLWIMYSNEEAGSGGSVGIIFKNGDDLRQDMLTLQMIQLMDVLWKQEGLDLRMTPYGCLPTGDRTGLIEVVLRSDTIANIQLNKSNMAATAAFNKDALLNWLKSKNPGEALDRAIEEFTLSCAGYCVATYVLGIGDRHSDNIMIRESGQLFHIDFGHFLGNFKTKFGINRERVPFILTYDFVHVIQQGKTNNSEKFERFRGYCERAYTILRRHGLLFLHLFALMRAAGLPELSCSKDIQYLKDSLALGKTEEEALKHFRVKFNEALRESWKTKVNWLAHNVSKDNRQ
T1 sequence (P27986 whole entry partner, species assumed): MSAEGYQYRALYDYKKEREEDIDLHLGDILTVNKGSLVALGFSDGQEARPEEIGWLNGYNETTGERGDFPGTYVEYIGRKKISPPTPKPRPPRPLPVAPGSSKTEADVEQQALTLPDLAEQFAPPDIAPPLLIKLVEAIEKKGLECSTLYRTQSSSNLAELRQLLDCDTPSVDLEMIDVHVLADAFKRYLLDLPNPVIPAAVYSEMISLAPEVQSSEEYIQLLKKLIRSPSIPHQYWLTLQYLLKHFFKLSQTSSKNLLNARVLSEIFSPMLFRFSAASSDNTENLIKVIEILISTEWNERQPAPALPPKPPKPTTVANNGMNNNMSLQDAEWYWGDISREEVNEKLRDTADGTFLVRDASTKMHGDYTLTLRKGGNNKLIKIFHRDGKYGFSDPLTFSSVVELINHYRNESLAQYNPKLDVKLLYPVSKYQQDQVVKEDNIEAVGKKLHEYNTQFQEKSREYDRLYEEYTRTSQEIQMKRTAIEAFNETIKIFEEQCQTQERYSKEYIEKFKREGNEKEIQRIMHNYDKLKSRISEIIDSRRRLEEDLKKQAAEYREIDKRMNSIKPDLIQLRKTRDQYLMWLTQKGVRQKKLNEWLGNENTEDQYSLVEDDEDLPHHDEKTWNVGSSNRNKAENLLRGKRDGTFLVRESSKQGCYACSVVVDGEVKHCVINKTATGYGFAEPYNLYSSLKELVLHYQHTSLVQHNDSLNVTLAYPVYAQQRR

| SMILES | IC50 [nM] |
| --- | --- |
| Cc1c(Cl)cc(C(C)Nc2ncnc3[nH]cnc23)c(OCCN2CCOCC2)c1-c1cc(F)cc(C(N)=O)c1 (stereo not shown) [Example 159, 3′-chloro-5-fluoro-2′-methyl-6′-(2-morpholin-4-ylethoxy)-5′-[1-(9H-purin-6-yl-amino)ethyl]-biphenyl-3-carboxamide] | < 50 |
| COc1ncc(-c2c(C)c(Cl)cc(C(C)Nc3ncnc4[nH]cnc34)c2OCCN2CCOCC2)cn1 (stereo not shown) [Example 161, N-{1-[5-chloro-3-(2-methoxy-pyrimidin-5-yl)-4-methyl-2-(2-morpholin-4-yl-ethoxy)-phenyl]-ethyl}-9H-purin-6-amine] | < 50 |
| COc1c(C(C)Nc2ncnc3[nH]cnc23)cc(Cl)c(C)c1-c1ccnnc1 (stereo not shown) [Example 163, N-[1-(5-Chloro-2-methoxy-4-methyl-3-pyridazin-4-ylphenyl)ethyl]-9H-purin-6-amine bis(trifluoroacetate)] | < 50 |
| COC(=O)N1CC(c2c(C)c(Cl)cc(C(C)Nc3ncnc4[nH]cnc34)c2OC)C1 (stereo not shown) [Example 167, Methyl 3-{3-chloro-6-methoxy-2-methyl-5-[1-(9H-purin-6-ylamino)ethyl]phenyl}azetidine-1-carboxylate trifluoroacetate] | < 50 |
| CNC(=O)N1CC(c2c(C)c(Cl)cc(C(C)Nc3ncnc4[nH]cnc34)c2OC)C1 (stereo not shown) [Example 168, 3-{3-Chloro-6-methoxy-2-methyl-5-[1-(9H-purin-6-ylamino)ethyl]phenyl}-N-methylazetidine-1-carboxamide trifluoroacetate] | < 50 |
| COc1c(C(C)Nc2ncnc3[nH]cnc23)cc(Cl)c(C)c1C1CN(S(C)(=O)=O)C1 (stereo not shown) [Example 169, N-(1-{5-Chloro-2-methoxy-4-methyl-3-[1-(methylsulfonyl)azetidin-3-yl]phenyl}ethyl)-9H-purin-6-amine trifluoroacetate] | < 50 |

Results, then the compound that gave them:

| IC50 [nM] | SMILES |
| --- | --- |
| < 50 | COc1ncc(-c2c(C)c(Cl)cc(C(C)Nc3ncnc4[nH]cnc34)c2OCCN2CCOCC2)cc1F (stereo not shown) [Example 160, N-{1-[5-chloro-3-(5-fluoro-6-methoxy-pyridin-3-yl)-4-methyl-2-(2-mor-pholin-4-ylethoxy)-phenyl]-ethyl}-9H-purin-6-amine] |
| < 50 | Cc1c(Cl)cc(C(C)Nc2ncnc3[nH]cnc23)c(OCCN2CCOCC2)c1-c1cncc(F)c1 (stereo not shown) [Example 162, N-{1-[5-chloro-3-(5-fluoro-pyridin-3-yl)-4-methyl-2-(2-mor-pholin-4-ylethoxy)-phenyl]-ethyl}-9H-purin-6-amine] |
| < 50 | COc1c(C(C)Nc2ncnc3[nH]cnc23)cc(Cl)c(C)c1-c1cscn1 (stereo not shown) [Example 164, N-{1-[5-Chloro-2-methoxy-4-methyl-3-(1,3-thiazol-4-yl)phenyl]ethyl}-9H-purin-6-amine trifluoroacetate] |
| < 50 | COc1c(C(C)Nc2ncnc3[nH]cnc23)cc(Cl)c(C)c1C1CNC1 (stereo not shown) [Example 165, N-[1-(3-azetidin-3-yl-5-chloro-2-methoxy-4-methylphenyl)ethyl]-9H-purin-6-amine bis(trifluoroacetate)] |
| < 50 | COc1c(C(C)Nc2ncnc3[nH]cnc23)cc(Cl)c(C)c1C1CN(C)C1 (stereo not shown) [Example 171, N-{1-[5-Chloro-2-methoxy-4-methyl-3-(1-methylazetidin-3-yl)phenyl]ethyl}-9H-purin-6-amine bis(trifluoroacetate)] |
| < 50 | COc1c(C(C)Nc2ncnc3[nH]cnc23)cc(Cl)c(F)c1C1CN(C(C)C)C1 (stereo not shown) [Example 172, N-{1-[5-Chloro-4-fluoro-3-(1-isopropylazetidin-3-yl)-2-methoxyphenyl]ethyl}-9H-purin-6-amine bis(trifluoroacetate)] |
| < 50 | CCOc1c(C(C)Nc2ncnc3[nH]cnc23)cc(Cl)c(C)c1C1CN(C)C1 (stereo not shown) [Example 173, N-{1-[5-chloro-2-ethoxy-4-methyl-3-(1-methylazetidin-3-yl)phenyl]ethyl}-9H-purin-6-amine] |
